# Results as given in ChEMBL document CHEMBL4627293, “Synthesis and in vitro activity of asymmetric indole-based bisamidine compounds against Gram-positive and Gram-negative pathogens” (2020).
# Legend:
# Type in all cases: functional
# Staphylococcus aureus [1] = assay: Antimicrobial activity against methicillin-sensitive Staphylococcus aureus ATCC 29213
# Staphylococcus aureus [2] = assay: Antimicrobial activity against methicillin- resistant Staphylococcus aureus ATCC 33591
# Enterococcus faecalis [3] = assay: Antimicrobial activity against Vancomycin-sensitive Enterococcus faecalis ATCC 29212
# Enterococcus faecalis [4] = assay: Antimicrobial activity against Vancomycin-resistant Enterococcus faecalis ATCC 51299
# Escherichia coli [5] = assay: Antimicrobial activity against Escherichia coli ATCC 25922
# Klebsiella pneumoniae [6] = assay: Antimicrobial activity against ESBL-producing Klebsiella pneumoniae ATCC 700603
# Klebsiella pneumoniae [7] = assay: Antimicrobial activity against NDM-1 producing Klebsiella pneumoniae ATCC BAA-2146
# Pseudomonas aeruginosa [8] = assay: Antimicrobial activity against Pseudomonas aeruginosa ATCC 27853
# Citrobacter freundii [9] = assay: Antimicrobial activity against Citrobacter freundii ATCC 43864
# Providencia rettgeri = assay: Antimicrobial activity against Providencia rettgeri ATCC 31052
# Proteus vulgaris = assay: Antimicrobial activity against Proteus vulgaris ATCC 29905
# [10] = system: Staphylococcus epidermidis; assay: Antimicrobial activity against methicillin-susceptible Staphylococcus epidermidis ATCC 12228
# Enterococcus faecium = assay: Antimicrobial activity against vancomycin-resistant Enterococcus faecium ATCC 700221
# Klebsiella pneumoniae [11] = assay: Antimicrobial activity against Klebsiella pneumoniae 7
# [12] = system: Acinetobacter calcoaceticus; assay: Antimicrobial activity against Acinetobacter calcoaceticus ATCC 19606
# Escherichia coli [13] = assay: Potency index, ratio of MIC for 2-[4-[4-[6-(N,N-dimethylcarbamimidoyl)-1H-indol-2-yl]phenoxy]phenyl]-N,N-dimethyl-1H-indole-6-carboxamidine to MIC for test compound against Escherichia coli ATCC 25922
# Klebsiella pneumoniae [14] = assay: Potency index, ratio of MIC for 2-[4-[4-[6-(N,N-dimethylcarbamimidoyl)-1H-indol-2-yl]phenoxy]phenyl]-N,N-dimethyl-1H-indole-6-carboxamidine to MIC for test compound against ESBL-producing Klebsiella pneumoniae ATCC 700603
# Klebsiella pneumoniae [15] = assay: Potency index, ratio of MIC for 2-[4-[4-[6-(N,N-dimethylcarbamimidoyl)-1H-indol-2-yl]phenoxy]phenyl]-N,N-dimethyl-1H-indole-6-carboxamidine to MIC for test compound against Klebsiella pneumoniae 7
# Klebsiella pneumoniae [16] = assay: Potency index, ratio of MIC for 2-[4-[4-[6-(N,N-dimethylcarbamimidoyl)-1H-indol-2-yl]phenoxy]phenyl]-N,N-dimethyl-1H-indole-6-carboxamidine to MIC for test compound against NDM-1 producing Klebsiella pneumoniae ATCC BAA-2146
# Pseudomonas aeruginosa [17] = assay: Potency index, ratio of MIC for 2-[4-[4-[6-(N,N-dimethylcarbamimidoyl)-1H-indol-2-yl]phenoxy]phenyl]-N,N-dimethyl-1H-indole-6-carboxamidine to MIC for test compound against Pseudomonas aeruginosa ATCC 27853
# Citrobacter freundii [18] = assay: Potency index, ratio of MIC for 2-[4-[4-[6-(N,N-dimethylcarbamimidoyl)-1H-indol-2-yl]phenoxy]phenyl]-N,N-dimethyl-1H-indole-6-carboxamidine to MIC for test compound against Citrobacter freundii ATCC 43864
# Klebsiella pneumoniae [19] = assay: Potency index, ratio of MIC for Levofloxacin to MIC for test compound against NDM-1 producing Klebsiella pneumoniae ATCC BAA-2146
# Klebsiella aerogenes = assay: Antimicrobial activity against Enterobacter aerogenes ATCC 45102
SMILES,MIC (Staphylococcus aureus [1]) [µg/mL],MIC (Staphylococcus aureus [2]) [µg/mL],MIC (Enterococcus faecalis [3]) [µg/mL],MIC (Enterococcus faecalis [4]) [µg/mL],MIC (Escherichia coli [5]) [µg/mL],MIC (Klebsiella pneumoniae [6]) [µg/mL],MIC (Klebsiella pneumoniae [7]) [µg/mL],MIC (Pseudomonas aeruginosa [8]) [µg/mL],MIC (Citrobacter freundii [9]) [µg/mL],MIC (Providencia rettgeri) [µg/mL],MIC (Proteus vulgaris) [µg/mL],MIC [10] [µg/mL],MIC (Enterococcus faecium) [µg/mL],MIC (Klebsiella pneumoniae [11]) [µg/mL],MIC [12] [µg/mL],MIC (Klebsiella aerogenes) [µg/mL],further results
CN(C)C(=N)c1ccc2cc(-c3ccc(Oc4ccc(-c5cc6ccc(C(=N)N(C)C)cc6[nH]5)nc4)cc3)[nH]c2c1,0.125,0.125,0.5,0.5,1,4,2,32,2,4,4,0.25,1,2,64,,Ratio (Escherichia coli [13]): 4; Ratio (Klebsiella pneumoniae [14]): 4; Ratio (Klebsiella pneumoniae [15]): 4; Ratio (Klebsiella pneumoniae [16]): 4; Ratio (Pseudomonas aeruginosa [17]): 4; Ratio (Citrobacter freundii [18]): 4
COc1cc(Oc2ccc(-c3cc4ccc(C(=N)N(C)C)cc4[nH]3)cc2)ccc1-c1cc2ccc(C(=N)N(C)C)cc2[nH]1,0.25,0.25,0.5,0.5,2,8,8,128,4,8,8,0.25,1,8,64,,Ratio (Klebsiella pneumoniae [19]): 16
C/N=C(\NC)c1ccc2cc(-c3ccc(Oc4ccc(-c5cc6ccc(/C(=N\C)NC)cc6[nH]5)cc4)cc3)[nH]c2c1,8,8,8,16,64,> 128,128,> 128,> 128,> 128,> 128,,,,,> 128,
C[C@H]1COc2c(N3CCN(C)CC3)c(F)cc3c(=O)c(C(=O)O)cn1c23.C[C@H]1COc2c(N3CCN(C)CC3)c(F)cc3c(=O)c(C(=O)O)cn1c23.O [LEVOFLOXACIN],0.25,0.25,1,1,,2,> 128,,0.03,0.125,0.125,0.25,32,16,0.25,0.25,
